# Assay results taken from US20110110886A1, “SMALL MOLECULE INHIBITORS OF AUTOTAXIN AND METHODS OF USE” (Yale University, priority 2008, published 2011).
# “Also recorded” adds a separate entry of the source. Read-outs that look alike come from different tables or passages of the source.
# How the values were obtained:
# [1] = molecular target: T1, ATX (recombinant full-length human ATX), PDE activity (Homo sapiens, UniProt Q13822); assay: Steady-state ATX phosphodiesterase (PDE) activity with pNP-TMP, absorbance 405 nm; assay type: biochemical; details: substrate pNP-TMP; for Ki: 25° C.
# T1 construct: consistent with a mature, glycosylated form of the enzyme; TEV cleavage site (C); 9-His (C); 6-His (C); made in house; host or cells: High Five insect cells (baculovirus, p-DEST-8)
# From the text: Protein expression and purification: The full length human NPP2 gene (NCBI accession #BC034961) followed by a C-terminal TEV cleavage site and a 9-His and 6-His purification tag was cloned and transferred into a p-DEST-8 baculovirus shuttle vector (Invitrogen), and bacmid DNA was generated by standard methods. The DNA sequence and correct transposition of the genes was verified by PCR, and recombinant full-length human ATX was expressed in High Five insect cells using standard methods. Three days post infection, the supernatant was adjusted to a final concentration of 50 mM Tris pH 8.0, 5 mM CaCl2, and 1 mM NiSO4 and stirred for 10 min. at room temperature. The resulting precipitant was removed by centrifugation (4,420×g for 30 minutes) and filtration ([…]), and the supernatant was concentrated using a Pall concentration system to approximately 250 mL. The cell media was passed over a nickel affinity column (5 mL, Fastflow resin), equilibrated in binding buffer (20 mM Tris pH 8.0, 300 mM NaCl, 20 mM imidazole, and 20% ethylene glycol) at 4° C., washed with 10 column volumes of binding buffer, and then eluted with binding buffer supplemented with 300 mM imidazole. Purified ATX was concentrated to approximately 10 mg mL^−1, and dialyzed into the appropriate assay buffer.
# Steady-state enzyme assays: Phosphodiesterase activity of ATX (75-100 nM) was measured by absorbance (λ=405 nm) on a SpectraMax 250 plate reader at 25° C. with the substrate pNP-TMP [36]. Reactions were run in assay buffer containing 10% DMSO (v/v) and 1 mg mL^−1 BSA (hexachlorophene, merbromin, and bithionol) or without BSA (NSC 48300, 2,2′-Methylenebis(4-chlorophenol), eosin Y, and RJC 03297) in a total volume of […]. The uncatalyzed reaction rate was ≦10^−7 s^−1 (data not shown).
# The steady-state rates (v) of product formation were obtained by fitting the time courses of absorbance or fluorescence change to linear functions. Absorbance units were converted to p-nitrophenylate concentration using ε405 of 18.5 mM^−1 cm^−1 [39] and a measured path length of 0.494 cm. FS-3 hydrolysis product formation was quantitated in arbitrary fluorescence units.
# The Michaelis constants (KM) and the catalytic turnover rate constants (kcat) were obtained by fitting the [substrate]-dependence of v to a rectangular hyperbola in the form of the Briggs-Haldane equation: […]
# in which [S] is [pNP-TMP] or [FS-3]. Inhibitors were treated as reversible inhibitors and analyzed according to the general steady-state linear enzyme inhibitor scheme:
# in which E is ATX, S is pNP-TMP or FS-3 substrate, P are the hydrolysis products, and K1 is the dissociation equilibrium constant for inhibitor binding. The values of α and K1 were obtained by fitting the steady-state rates of product formation (v) to the general inhibition equation: […]
# in which [I] is the inhibitor concentration, kcat is the maximum catalytic turnover rate, and KS is the Michaelis constant of the substrate obtained in the absence of inhibitor.
# The type of inhibition (competitive, noncompetitive, or uncompetitive) depends on the value of α.
# The type of inhibition was assigned if the difference between the r^2 values of the fits to the general inhibition equation (Eq 2) and the specific inhibition (i.e. competitive, noncompetitive or uncompetitive) equations was less than 0.01.
# [2] = system: human melanoma cell line (A2058); assay: Boyden chamber cell migration assay, melanoma cells; assay type: cell-based; details: A2058, 50 nM ATX, 4 hours
# Description: (§1) All cell media was supplemented with 10% (v/v) fetal calf serum (FCS) (Gibco) and 1% (v/v) L-glutamine (Gibco) and grown at 37° C. in a humidified atmosphere containing 5% CO2.
# The assay chambers are divided by a gelatin-coated membrane with […] pores (NeuroProbe). […] The chambers were then incubated at 37° C. for 4 hours, after which the filters were removed, fixed in 100% methanol, stained with a DiffQuick solution, and mounted onto glass slides. Non-migrating cells were removed from the membrane by scraping the top surface. The cells were quantitated by counting the cell number per high powered field in the various wells. Treatments were compared using a chi squared test.
# [3] = system: ovarian carcinoma cells R182; assay: Matrigel cell invasion assay, primary ovarian cancer cells; assay type: cell-based, human; details: 50 nM ATX
# Description: Cell culture: Human melanoma cells, A2058 (ATCC), were grown in Dulbecco's Modified Eagle's Medium (DMEM) (Gibco), MeI 28 (ATCC), YUSAC2 (Yale University) and MeI-888 (Yale University) were grown in OptiMEM media (Gibco), and HTB 63 (ATCC) were grown in McKoy's 5a medium (ATCC). Human breast adenocarcinoma cells, MDA-MB-231(ATCC) and ovarian carcinoma cells R182 (Gil Mor, Yale University) were grown in RPMI-1640 (Gibco). All cell media was supplemented with 10% (v/v) fetal calf serum (FCS) (Gibco) and 1% (v/v) L-glutamine (Gibco) and grown at 37° C. in a humidified atmosphere containing 5% CO2.
# (§2) Cell invasion assays: Matrigel matrix (1 mg/ml, Becton Dickenson) was added to […] gelatin-coated membranes placed in cell culture inserts (BD Falcon) and allowed to set for 24 hours at room temperature. The inserts were placed into companion 24 well plates (BD Falcon), and chemo-attractants (ATX ±inhibitors) and/or controls were added to the bottom of the wells. Cells (1×10^6) were added to the inserts and incubated for 3 hours at 37° C. Following incubation, the inserts were removed, fixed in 100% methanol, stained with DiffQuick solution, and mounted on glass slides. Non-invading cells were removed by scraping away the matrigel, and migrating cells were quantitated by counting cell number per high-powered field.
# A2058 melanoma cells = assay: Matrigel cell invasion assay, melanoma cells; assay type: cell-based, human; details: A2058, 50 nM ATX
# Description: as §1, §2
SMILES,type of inhibition of ATX PDE activity [1],α value from general steady-state inhibition equation (Eq. 2) [1],"Ki ([1]; read-out: KI (dissociation equilibrium constant for inhibitor binding), ATX PDE activity) [µM]",inhibition of ATX-induced stimulation of melanoma cell motility [2],reduction of ATX-stimulated ovarian cancer cell invasion [3],inhibition of ATX-induced stimulation of melanoma cell invasion (A2058 melanoma cells),"Ki ([1]; competitive inhibition equation (Eq. 3), read-out: KI, ATX PDE activity) [µM]",inhibition of ATX-induced stimulation of melanoma cell invasion (A2058 melanoma cells; listed as NSC48300)
Oc1c(Cl)cc(Cl)cc1Sc1cc(Cl)cc(Cl)c1O [Bithionol],"mixed, noncompetitive inhibition mechanism",3.0 (±2.3),60,inhibited in a dose-dependent manner,could be reduced,inhibited in a dose-dependent manner; also recorded: could be reduced,–,–
O=[As](O)(O)c1ccc(Cc2ccc([As](=O)(O)O)cc2)cc1 [NSC 48300],competitive inhibition,–,–,inhibited in a dose-dependent manner,could be reduced,inhibited in a dose-dependent manner,0.0475,could be reduced
